ChEMBL document CHEMBL5055656, “Synthesis of novel indole-thiazolidinone hybrid structures as promising scaffold with anticancer potential” (Bioorg Med Chem, 2021)
Calls of active or inactive are those of the source. The calls are words filed in the database; no cut-off is given here.

Columns and labels:
[1] = Selectivity index, ratio of GI50 for human HaCaT cells to GI50 for human WM793 cells
[2] = Selectivity index, ratio of GI50 for mouse BALA/3T3 cells to GI50 for human HCT-116 cells; format: toxicity; settings: BALA/3T3 cells versus HCT-116 cells, read-out: RatioGI50
[3] = Selectivity index, ratio of GI50 for mouse BALA/3T3 cells to GI50 for human WM793 cells
[4] = Cytotoxicity against mouse BALB/3T3 cells assessed as cell growth inhibition measured after 72 hrs by MTT assay; format: cell-based
[5] = Selectivity index, ratio of GI50 for mouse BALA/3T3 cells to GI50 for human HeLa cells; format: toxicity; settings: BALA/3T3 cells versus HeLa cells, read-out: RatioGI50
[6] = Selectivity index, ratio of GI50 for mouse BALA/3T3 cells to GI50 for human THP-1 cells
[7] = system: HCT-116; experiment: Cytotoxicity against human HCT-116 cells assessed as cell growth inhibition measured after 72 hrs by MTT assay; format: functional
[8] = system: A549; experiment: Cytotoxicity against human A549 cells assessed as cell growth inhibition measured after 72 hrs by MTT assay; format: functional
[9] = Selectivity index, ratio of GI50 for human HaCaT mouse BALA/3T3 cells to GI50 for human A549 cells; format: toxicity; settings: read-out: RatioGI50
[10] = system: HeLa; experiment: Cytotoxicity against human HeLa cells assessed as cell growth inhibition measured after 72 hrs by MTT assay; format: functional
[11] = Selectivity index, ratio of GI50 for human HaCaT cells to GI50 for human A549 cells; format: toxicity; settings: HaCaT cells versus A549 cells, read-out: RatioGI50
[12] = Selectivity index, ratio of GI50 for mouse BALA/3T3 cells to GI50 for human HepG2 cells; format: toxicity; settings: BALA/3T3 cells versus HepG2 cells, read-out: RatioGI50
[13] = system: HepG2; experiment: Cytotoxicity against human HepG2 cells assessed as cell growth inhibition measured after 72 hrs by MTT assay; format: functional
[14] = Selectivity index, ratio of GI50 for human HaCaT cells to GI50 for human HeLa cells; format: toxicity; settings: HaCaT cells versus HeLa cells, read-out: RatioGI50
[15] = Selectivity index, ratio of GI50 for human HaCaT cells to GI50 for human HCT-116 cells; format: toxicity; settings: HaCaT cells versus HCT-116 cells, read-out: RatioGI50
[16] = Selectivity index, ratio of GI50 for human HaCaT cells to GI50 for human THP-1 cells
[17] = Cytotoxicity against human HaCaT cells assessed as cell growth inhibition measured after 72 hrs by MTT assay; format: cell-based
[18] = Selectivity index, ratio of GI50 for mouse BALA/3T3 cells to GI50 for human MCF7 cells; format: toxicity; settings: BALA/3T3 cells versus MCF7 cells, read-out: RatioGI50
[19] = Selectivity index, ratio of GI50 for human HaCaT cells to GI50 for human MCF7 cells; format: toxicity; settings: HaCaT cells versus MCF7 cells, read-out: RatioGI50
[20] = Selectivity index, ratio of GI50 for human HaCaT cells to GI50 for human HepG2 cells; format: toxicity; settings: HaCaT cells versus HepG2 cells, read-out: RatioGI50
[21] = system: THP-1; experiment: Cytotoxicity against human THP-1 cells assessed as cell growth inhibition measured after 72 hrs by MTT assay; format: functional
[22] = system: MCF7; experiment: Cytotoxicity against human MCF7 cells assessed as cell growth inhibition measured after 72 hrs by MTT assay; format: functional
[23] = system: WM793; experiment: Cytotoxicity against human WM793 cells assessed as cell growth inhibition measured after 72 hrs by MTT assay; format: functional
[24] = Cytotoxicity against human HaCaT cells assessed as cell growth inhibition at 100 uM measured after 72 hrs by MTT assay relative to control; format: cell-based; settings: read-out: Activity
[25] = system: HepG2; experiment: Induction of apoptosis in human HepG2 cells assessed as effect on phospho-Rb expression at 1.6 uM after 24 hrs by Western blot analysis; format: functional, cell-based
[26] = system: HepG2; experiment: Induction of apoptosis in human HepG2 cells assessed as increase in Bax expression at 1.6 uM after 24 hrs by Western blot analysis; format: functional, cell-based
[27] = system: MCF7; experiment: Induction of apoptosis in human MCF7 cells assessed as activation of cleaved PARP1 expression at 0.7 uM incubated for 24 hrs by Western blot analysis; format: functional, cell-based
[28] = system: BALB/3T3; experiment: Induction of DNA damage in mouse BALB/3T3 cells assessed as increase in tail length incubated at 1.6 uM measured after 24 hrs by alkaline Comet assay; format: cell-based; settings: balb/3t3, 24 h
[29] = system: HepG2; experiment: Induction of apoptosis in human HepG2 cells assessed as increase in phospho-Chk2 expression at 1.6 uM after 24 hrs by Western blot analysis; format: functional, cell-based
[30] = system: HCT-116; experiment: Induction of cell cycle arrest in human HCT-116 cells assessed as decrease in phospho-Rb expression measured after 24 hrs by Western blot analysis; format: functional, cell-based
[31] = system: HCT-116; experiment: Induction of DNA damage in human HCT-116 cells assessed as increase in tail length incubated at 0.5 uM measured after 24 hrs by alkaline Comet assay; format: functional
[32] = system: BALB/3T3; experiment: Induction of DNA damage in mouse BALB/3T3 cells assessed as increase in olive tail moment incubated at 1.6 uM measured after 24 hrs by alkaline Comet assay; format: cell-based; settings: balb/3t3, 24 h
[33] = system: HCT-116; experiment: Induction of DNA damage in human HCT-116 cells assessed as increase in olive tail moment incubated at 0.5 uM measured after 24 hrs by alkaline Comet assay; format: functional
[34] = system: HepG2; experiment: Induction of DNA damage in human HepG2 cells assessed as increase in tail length incubated at 0.5 uM measured after 24 hrs by alkaline Comet assay; format: functional
[35] = system: HCT-116; experiment: Induction of apoptosis in human HCT-116 cells assessed as activation of cleaved PARP1 expression at 0.7 uM incubated for 24 hrs by Western blot analysis; format: functional, cell-based
[36] = system: HepG2; experiment: Induction of DNA damage in human HepG2 cells assessed as increase in olive tail moment incubated at 0.5 uM measured after 24 hrs by alkaline Comet assay; format: functional
[37] = system: Salmon testes DNA; experiment: Displacement of methyl green from salmon sperm DNA at 1 uM measured after 2 hrs by fluorescence plate reader method relative to control; format: cell-based; settings: Salmo salar, Spermatozoa
[38] = system: HepG2; experiment: Induction of apoptosis in human HepG2 cells assessed as increase in Cdk2 expression at 1.6 uM after 24 hrs by Western blot analysis; format: functional, cell-based
[39] = system: Salmon testes DNA; experiment: Displacement of methyl green from salmon sperm DNA at 10 uM measured after 2 hrs by fluorescence plate reader method relative to control; format: cell-based; settings: Salmo salar, Spermatozoa

SMILES	RatioGI50 [1]	selectivity ratio [2]	RatioGI50 [3]	GI50 at 72 h [4] [µM]	selectivity ratio [5]	RatioGI50 [6]	GI50 [7] [µM]	GI50 [8] [µM]	selectivity ratio [9]	GI50 [10] [µM]	selectivity ratio [11]	selectivity ratio [12]	GI50 [13] [µM]	selectivity ratio [14]	selectivity ratio [15]	RatioGI50 [16]	GI50 at 72 h [17] [µM]	GI50 [21] [µM]	GI50 [22] [µM]	GI50 [23] [µM]	also measured
COC(=O)c1[nH]c2ccc(F)cc2c1/C=C1\SC(=O)NC1=S	1.04	1.91	1.04	89.2	1.57	3.02	45.1	8.7	9.9	55	9.9	1.41	60.9	1.57	1.91	3.02	83.1	28.5	52.5	83.1	selectivity ratio [18]: 1.64; selectivity ratio [19]: 1.64; selectivity ratio [20]: 1.41
COC(=O)c1[nH]c2ccc(F)cc2c1/C=C1\NC(=S)NC1=O	1.19	1.89	1.19	> 100	1.72	1.72	53	49.2	2.03	58.1	2.03	2.95	33.9	1.72	1.89	1.72	> 100	58.3	63.7	84.2	inhibition at 72 h, 100 µM [24]: 43.3%; selectivity ratio [18]: 1.57; selectivity ratio [19]: 1.57; selectivity ratio [20]: 2.95
COC(=O)c1[nH]c2ccc(F)cc2c1C=O	0.81	0.67	0.81	64	0.67	8.66	> 100	44.8	1.49	100	1.49	0.67	> 100	0.67	0.67	8.66	69.3	7.7	> 100	82.5	selectivity ratio [18]: 0.67; selectivity ratio [19]: 0.67; selectivity ratio [20]: 0.67
COc1cccc2c1C(=O)c1c(O)c3c(c(O)c1C2=O)C[C@@](O)(C(=O)CO)C[C@@H]3O[C@H]1C[C@H](N)[C@H](O)[C@H](C)O1 [DOXORUBICIN]				0.6			0.6	0.6		0.3			0.7				0.9	0.6	0.4	0.6	Activity [25]: Active; Activity [26]: Active; Activity [27]: Active; Activity [28]: 15.9%; Activity [29]: Active; Activity [30]: Active; Activity [31]: 28.4%; Activity [32]: 5.9; Activity [33]: 10.3; Activity [34]: 23.4%; Activity [35]: Active; Activity [36]: 6.92; Activity [37]: 29.2%; Activity [38]: Active; Activity [39]: 69.7%
COC(=O)c1[nH]c2ccc(F)cc2c1/C=C1\SC(N)=NC1=O	0.66	6.86	0.66	30.3	0.7	0.65	9.5	62.7	1.04	93.3	1.04	1.31	49.8	0.7	6.86	0.65	> 100	100	67.7	98.6	inhibition at 72 h, 100 µM [24]: 20.2%; selectivity ratio [18]: 0.96; selectivity ratio [19]: 0.96; selectivity ratio [20]: 1.31
COC(=O)c1[nH]c2ccc(F)cc2c1/C=C1\SC(=O)NC1=O	1.2	1.48	1.2	> 100	2.1	1.72	67.6	25.4	3.94	47.6	3.94	3.36	29.8	2.1	1.48	1.72	> 100	45	80.7	83.1	inhibition at 72 h, 100 µM [24]: 43.4%; selectivity ratio [18]: 1.24; selectivity ratio [19]: 1.24; selectivity ratio [20]: 3.36
